According to patent publication US7949164B2, “Lung cancer diagnosis using magnetic resonance imaging data obtained at three time points” (Yeda Research & Development Co. Ltd., priority 2005, dated 2011):

Tests used:
[1] = listed under H460 NSCLC tumor tissue; Furman-Haran, 1997; cited from earlier work
[2] = Contrast agent pharmacokinetics in plasma: bi-exponential fit of DCE-MRI signal enhancement curves (heart ventricle / great vessels) after bolus injection; type: in vivo; settings: nude rats, bolus into tail vein, dose 0.1 mmol/kg wt
Procedure: Enhancement, E(t), is defined as the difference in signal intensities before and after contrast material injection: E(t)=[I(t)−I(t0)]/I(t0) Eq. (1) where I designates signal intensity. Assuming similar pharmacokinetics for all patients with normal kidney function, Cp(t) in ml contrast agent per liter blood may be given by the equation: Cp(t)=D(a1e^−m1^t+a2e^−m2^t) D=dose in ml/kg Eq. (2)
To determine contrast agent pharmacokinetics, GdDTPA was injected as a bolus into the tail of the rats at a dose of 0.1 mmol/kg. Changes in the bolus concentration of the contrast agent after injection were monitored by fitting the signal enhancement curves of the in vivo DCE-MRI studies, of regions of interest at the heart ventricle or in one of the great vessels, to a bi-exponential decay. Similar values were previously derived by measurements of blood samples taken after the bolus injection.
The time-dependent changes in signal enhancement were processed pixel-by-pixel using Tofts' physiological model, the contrast agent pharmacokinetics and pre-contrast T1 values (Table 1), and the calibration algorithms herein described.

In the case of O=C([O-])CN(CCN(CC(=O)[O-])CC(=O)O)CCN(CC(=O)[O-])CC(=O)O.[Gd+3] [Gd-DTPA, Gadolinium-diethylene triamino pentaacetic acid], the “R1, T1 relaxivity” value [1] is given as 4.2 {Furman- s^−1mM^−1, the “a1, Amplitude of fast decay” value [2] is given as 9.44 kg/L and the “a2, Amplitude of slow decay” value [2] is given as 3.99 kg/L. The “m1, Fast decay time constant” value [2] was 0.75 min⁻¹ and the “m2, Slow decay time constant” value [2] was 0.033 min⁻¹.
